From PMC8348310, “Antioxidants Isolated from Elaeagnus umbellata (Thunb.) Protect against Bacterial Infections and Diabetes in Streptozotocin-Induced Diabetic Rat Model” (Molecules, 2021)

Tested on: STZ-induced diabetic rats
Assay: Antioxidant enzymes and oxidative stress markers in pancreas tissue homogenates of STZ-induced diabetic rats
Assay type: in vivo, Sprague Dawley adult albino rats
Procedure: The pancreas tissue (1 g) was isolated from Sprague Dawley rats, washed with cold saline solution and blotted dried. A weighed portion of the pancreas tissue was homogenized on ice and then centrifuged for 15 min at 3500 rpm at 4 °C. The supernatant was then taken and stored at −20 °C until assessed for different enzymes.
The activities of reduced glutathione (GSH) level were determined in the pancreatic tissues according to the previously established method. About 300 µL of tissue supernatant was centrifuged for 5 min at 3500 rpm following deproteinization with 300 µL of 10% trichloroacetic acid. In total, 200 µL of the resulting supernatant of each sample (at concentrations 2, 5, 10, 15, 30, and 50 µg/mL) was mixed with 50 µL of Ellman’s reagent (5,5′-dithiobis-(2-nitro-benzoic acid)) (DTNB) then centrifuged at 3000 rpm for 15 min. The absorbance was recorded at 412 nm. A series of standards treated in a similar way were also run to determine the glutathione content. The amount of glutathione is expressed as µmole/mg of tissue protein.
. […] The pink colored TBARS was measured photometrically at 532 nm and tissue MDA was determined from a standard curve and is expressed as nmole/mg of tissue protein. […]

## O=c1c(O)c(-c2ccc(O)cc2O)oc2cc(O)cc(O)c12 [Morin, 2-(2,4-Dihydroxyphenyl)-3,5,7-trihydroxychromen-4-one]
Morin 2, 5, 10, 15, 30, and 50 µg/kg body weight, pancreas tissue homogenates
  MDA level (lipid peroxidation): significantly (p < 0.05, p < 0.01, p < 0.001) decreased
morin, pancreatic tissues homogenates of diabetic rats
  GPx activity: significantly increased
